Measured values as given in patent publication US10881634B2, “Method for treatment or prevention of a disease associated with a decrease in bone mass and method of improving bone architecture and bio mechanical strength of bone” (HUGHES BIOTECHNOLOGY CO., LTD, priority 2017, dated 2021).

Tests used:
[1] = Weight changes in ovariectomized rat model; assay type: in vivo, Wistar rats; conditions: ovariectomized rats; for effect on weight gain caused by estrogen deficiency: 12 weeks
Protocol: 12-week-old female Wistar rats were used. All of experimental rats were purchased from BioLASCO Taiwan Co., Ltd. The rats were housed in the Experimental Animal Center of Taipei Medical University. The animal room was maintained under temperature of 21-24° C., relative humidity of 30-70%, and 12 hours of automatic light for alternating dark and bright. During the experimental periods, the animals were given adequate drinking water and fed with standard feed. The feeding and surgery were in accordance with the regulations of the Institutional Animal Care and Use Committee (IACUC) of Taipei Medical University.
(§1) For ovariectomy rats, bilateral ovariectomy surgery was conducted at 12-week-old under anesthesia with Zoletil 50 (Tiletamine 20-40 mg/kg+Zolazepam 5-10 mg/kg) and Rompun, following the FDA Guidelines and Animal Models for Osteoporosis. For sham surgery rats, set as control group, the surgery performed surgical incision without removing the ovaries was also conducted at 12-week-old under anesthesia with Zoletil 50 (Tiletamine 20-40 mg/kg+Zolazepam 5-10 mg/kg) and Rompun. After ovariectomy surgery, 24 rats of ovariectomy group were randomly divided into 4 groups, namely, 6 rats in each group. After 2 weeks of surgery, the rats were oral administered once a day with different samples based on their groups. The rats were weighed once a week as the basis for the dose of administration for 12 weeks and the weight data were recorded. Finally, when sacrificed, the ovarian of the rats were checked to determine whether the ovariectomy surgery was successful or not, wherein the data of failed ovariectomy rat(s) would be eliminated.
(§2) Total 30 rats were grouped into following 5 groups (i.e., “SHAM”, “OVX”, “G7P”, “G7P2X”, “E2”). • a. SHAM group: sham surgery rats, set as control group, fed with sterile water by oral gavage; • b. OVX group: ovariectomized rats, set as negative control, fed with sterile water by oral gavage; • c. G7P group: ovariectomized rats, administered with 5.33 mg/kg B.W. G7P solution once per day by oral gavage, wherein the dosage was equal to 40 mg/day of the amount of soy isoflavones for adult; • d. G7P2X group: ovariectomized rats, administered with 10.66 mg/kg B.W. G7P once per day by oral gavage, wherein the dosage was equal to 80 mg/day of the amount of soy isoflavones for adult; • e. E2 group: ovariectomized rats, set as positive control, administered with 200 μg/kg B.W. […] once per day by tube feeding.

ovariectomized rats [2] = assay: Bone mechanics analysis (three-point bending test of femur); assay type: in vivo, Wistar rats; conditions: week 12
Protocol: as §1, §2
The bio-mechanical strength of femur was measured using bio-mechanical testing instrument (RT1-TST, Royalty Tec.Ins. Ltd) after removing the soft tissue of left leg. First, the length of the femur was measured by the electronic vernier and the mid-position of the femur was set so as to be the scale standard which must be aligned when compressing the vertical physical strength of the femur by the bone stress meter. The femur was kept moist with physiological saline and fixed on a test bench for a three-point bending test. The motor revolution speed of the bone stress meter was set at 0.05 mm/sec. After the femur was compressed to fracture, the parameters of the bone mechanics analysis obtained by the test system were as follows:
a. maximal load: the force converted from the maximum weight of the record, the unit is Newton;
b. maximal energy: the area integratal under the record curve, the unit is mJ;
d. Young's modulus or elastic modulus (E).

ovariectomized rats [3] = assay: Bone index test (in vivo micro-CT scan of caput femoris); set-up: species or system Wistar rats; conditions: for BMD level compared with OVX group: week 12
Protocol: as §1, §2
At week 0, 3, 6, 9 and 12 of the experimental period, in vivo micro-CT scan were conducted on the caput femoris of right leg of the rats by animal CT scanner system Sky Scan 1176 to obtain the 3D tomography image. The obtained 3D tomography images were further analyzed by software so as to obtain bone index data. The data include bone mineral density (BMD) and bone volume-to-total volume ratio (bone volume/total volume, BV/TV, %).

ovarietomized rats = conditions: 3.2 mg/kg B.W. daily oral supplement, 5 months; cited from earlier work
ovariectomized rats [4] = assay: Histopathological observation (H&E staining, caput femoris); assay type: in vivo, Wistar rats
Protocol: as §1
Total 30 rats were grouped into following 5 groups (i.e., “SHAM”, “OVX”, “G7P”, “G7P2X”, “E2”). • a. SHAM group: sham surgery rats, set as control group, fed with sterile water by oral gavage; • b. OVX group: ovariectomized rats, set as negative control, fed with sterile water by oral gavage; • c. […]

[5] = estradiol 200 μg/kg B.W. once per day oral (E2 group)
[6] = estradiol 200 μg/kg B.W. once per day by tube feeding (E2 group)
[7] = G7P 5.33 mg/kg B.W. once per day oral (G7P group)
[8] = G7P 10.66 mg/kg B.W. once per day oral (G7P2X group)
[9] = G7P 5.33 mg/kg B.W. once per day oral gavage (G7P group)
[10] = G7P 10.66 mg/kg B.W. once per day oral gavage (G7P2X group)

For `C[C@]12CC[C@@H]3c4ccc(O)cc4CC[C@H]3[C@@H]1CC[C@@H]2O` [E2, 1743 estradiol, reference compound], the “effect on weight gain caused by estrogen deficiency” value (“effect on weight gain caused” for short) [1, 5] was “could reduce the weight gain”, the “Max Energy” value (ovariectomized rats [2]; [6]) was 76.1 ± 20.3 mJ and the Stiffness (ovariectomized rats [2]; [6]) was 307.6 ± 55.1 N/mm. The applied load (ovariectomized rats [2]; [6]) was 176.8 ± 12.1 N, the “BV/TV compared with OVX group” value (ovariectomized rats [3]; [5]) was “higher than that of the OVX group with statistical significance” and the “trabecular structure in μCT 3D imaging” value (ovariectomized rats [3]; [5]) was “a wide but loose trabecular distribution”. For the same compound, the “BMD level compared with OVX group” value (ovariectomized rats [3]; [5]) was “significantly higher than that of the OVX group”.

For `O=c1c(-c2ccc(O)cc2)coc2cc(O)cc(O)c12` [genistein], the “effect on bone mass, density or architecture” value (ovarietomized rats) is given as “had no effect on bone mass, density or architecture”.

For `O=c1c(-c2ccc(O)cc2)coc2cc(OP(=O)(O)O)cc(O)c12` [G7P, genistein 7-O-phophate], the “effect on weight gain caused” value [1, 7] was “did not reverse the weight gain”, the body weight ([1]; G7P 5.33 mg/kg B.W. once per day oral (G7P group), week 12 after surgery) was roughly 400 g and the “effect on weight gain caused” value [1, 8] was “did not reverse the weight gain”. For the same compound, the Elastic modulus (ovariectomized rats [2]; [9]) was 21.8 ± 2.6 MPa, the “Max Energy” value (ovariectomized rats [2]; [9]) was 74.4 ± 6.8 mJ and the Stiffness (ovariectomized rats [2]; [9]) was 326.2 ± 43.2 N/mm. For the same compound, the applied load (ovariectomized rats [2]; [9]) was 186.5 ± 5.9 N, the Elastic modulus (ovariectomized rats [2]; [10]) was 22.8 ± 6.1 MPa and the “Max Energy” value (ovariectomized rats [2]; [10]) was 82.7 ± 22.8 mJ. For the same compound, the Stiffness (ovariectomized rats [2]; [10]) was 319.1 ± 6.1 N/mm, the applied load (ovariectomized rats [2]; [10]) was 197.5 ± 20.6 N and the “bone mineral retention and trabecular bone density in H&E slide” value (ovariectomized rats [4]; [7]) was “good”. The “bone mineral retention and trabecular bone density in H&E slide” value (ovariectomized rats [4]; [8]) was “good”, the “BV/TV compared with OVX group” value (ovariectomized rats [3]; [7]) was “higher than that of the OVX group with statistical significance” and the “trabecular structure in μCT 3D imaging” value (ovariectomized rats [3]; [7]) was “much integrated than that of the OVX group”. The “BMD level compared with OVX group” value (ovariectomized rats [3]; [7]) was “significantly higher than that of the OVX group”, the “BV/TV compared with OVX group” value (ovariectomized rats [3]; [8]) was “higher than that of the OVX group with statistical significance” and the “trabecular structure in μCT 3D imaging” value (ovariectomized rats [3]; [8]) was “much integrated than that of the OVX group”. For the same compound, the “BMD level compared with OVX group” value (ovariectomized rats [3]; [8]) was “significantly higher than that of the OVX group”.
